Reference: PMC12522106 (Cancer Research Communications, 2025)
Read-outs that look alike come from different tables or passages of the source.

Key:
[1] = system: LM7 sarcospheres; assay: Sarcosphere resazurin metabolic activity (initial and secondary screens); type: cell-based, human; conditions: secondary screen; without MAP
Procedure: (§1) Khanna DVM, PhD (NCI). […] Medium was sterile filtered before use.
(§2) Highly metastatic osteosarcoma cells cultured in monolayers at 50% to 80% confluence were lifted with Accutase (Innovative Cell Technologies, Inc., cat. #NC9839010), resuspended in media, and diluted to the desired concentration. […] Following cell seeding, plates were centrifuged (1,000 g for 10 minutes at 4°C) and then incubated at 37°C with 5% CO2. […] Then, 100 μL drug treatment or vehicle was added to each well. […] Resazurin reduction on day 2 by vehicle-treated sarcospheres was compared with resazurin reduction on day 0 to calculate sarcosphere growth without drug over 2 days in selected experiments.
(§3) Plates were incubated at 37°C in 5% CO2 for 2 or 6 hours.
(§4) Sarcospheres were matured for 24 hours and then treated for 48 hours with media containing 10 µmol/L of each drug and 0.1% DMSO. […] Growth inhibition represents a more clinically translatable measure for screening studies in which a value of 0% represents stable disease since the start of treatment, values of 0% to 100% represent progression in which 100% is the untreated control, and values less than 0% represent regression in which −100% represents blank wells without sarcospheres.

[2] = system: sarcospheres derived from 143B, MG63.3-GFP, and LM7 cell lines; assay: Sarcosphere resazurin metabolic activity, results stated across all three cell lines; type: cell-based, human; conditions: with and without MAP; vs belinostat, panobinostat, vorinostat, AR-42, resminostat
Procedure: as §1, §2, §3, §4

[3] = system: 143B sarcospheres; assay: Sarcosphere size (Incucyte); type: cell-based, human; conditions: initial 48-hour observation period
[4] = system: patient-derived sarcospheres; assay: Sarcosphere size (Incucyte); type: cell-based, human, canine; conditions: 48-hour observation period; sensitive and resistant samples
Procedure: The number of patient-derived cells required to obtain sarcospheres with 400-μm diameters was determined for each patient and varied from 1,000 to 15,000 cells per sarcosphere.

[5] = humans, cited from earlier work
[6] = system: LM7 cell–derived lung metastases; parameters: method as in PMID 32599665; conditions: administration continued for the entire 21-week observation period; cited from earlier work
[7] = cited from earlier work
[8] = system: monolayers of either established osteosarcoma cell lines or PDX cell lines; parameters: method as in PMID 30395907, PMID 26601688, PMID 37457661, PMID 35411591; conditions: cited from earlier work

For C/C=C1\NC(=O)[C@H]2CSSCC/C=C/[C@H](CC(=O)N[C@H](C(C)C)C(=O)N2)OC(=O)[C@H](C(C)C)NC1=O [romidepsin], the “rank of ED50 among the 13 drugs” value [1] was “lowest ED50”, the “rank of ED50s among tested HDIs” value [2] was “lowest ED50s” and the “effect on sarcosphere size” value [3] was “inhibited the increase in size”. For the same compound, the “effect on sarcosphere size” value [4] was “did not change in size”, the Cmax [5] was about 0.7 µM and the Cmax ([5]; listed as Romidepsin) was 0.7 µM. For the same compound, the “growth of lung metastases” value [6] was “prevented”, the “most common severe adverse events” value [7] was “thrombocytopenia and neutropenia” and the “most common side effect” value [7] was “Nausea”. For the same compound, the severe toxicities [7] was “few severe toxicities”, the “most concerning potential side effect” value ([7]; reported in humans, rats, and beagle dogs) was “cardiac toxicity” and the “standing in four independent screens” value [8] was “among the top hits”.
